Data as given in patent publication US12077503B2, “Substituted cyclic amides and their use as herbicides” (FMC CORPORATION, priority 2015, dated 2024).

Columns and labels:
Assay type in all cases: in vivo
[1] = system: blackgrass (Alopecurus myosuroides); experiment: Test A postemergence
Procedure, shortened: (§1)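 Compounds were formulated in a non-phytotoxic solvent mixture with surfactant and applied as a preemergence directed soil spray after seeding, or sprayed postemergence over plants 2 to 10 cm tall at the one- to two-leaf stage. Evaluation after about 10 d compared treated with untreated controls, using a scale from 0 (no effect) to 100 (complete control).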

[2] = system: Galium (catchweed bedstraw, Galium aparine); experiment: Test A postemergence
Procedure, shortened: as §1

[3] = system: giant foxtail (Setaria faberii); experiment: Test A postemergence
Procedure, shortened: as §1

Kochia (Kochia scoparia) [4] = experiment: Test A postemergence
Procedure, shortened: as §1

[5] = system: wheat (Triticum aestivum); experiment: Test A postemergence
Procedure, shortened: as §1

[6] = system: pigweed (Amaranthus retroflexus); experiment: Test A postemergence
Procedure, shortened: as §1

[7] = system: ryegrass, Italian (Italian ryegrass, Lolium multiflorum); experiment: Test A postemergence
Procedure, shortened: as §1

corn (Zea mays) = experiment: Test A postemergence
Procedure, shortened: as §1

[8] = system: barnyardgrass (Echinochloa crus-galli); experiment: Test A postemergence
Procedure, shortened: as §1

[9] = system: ragweed (common ragweed, Ambrosia elatior); experiment: Test A postemergence
Procedure, shortened: as §1

[10] = system: sedge, umbrella (small-flower umbrella sedge, Cyperus difformis); experiment: Test B flooded paddy test; details: Flood; for Sedge, Umbrella plant response rating: 250 g ai/ha
Procedure, shortened: (§2)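 Flooding to 3 cm over soil accompanied treatment, which consisted of adding compound to the standing water around 2-leaf plants; depth was then maintained. Visual assessment versus controls followed at 13 to 15 d (scale 0–100, 0 meaning no effect).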

rice (Oryra sativa) = experiment: Test B flooded paddy test; details: Flood; for Plant response rating, Rice: 0 to 100 scale where 0 is no effect and 100 is complete control, 13 to 15 d
Procedure, shortened: as §2

[11] = system: ducksalad (Heteranthera limosa); experiment: Test B flooded paddy test; details: Flood; for Plant response rating, Ducksalad: 0 to 100 scale where 0 is no effect and 100 is complete control, 13 to 15 d
Procedure, shortened: as §2

[12] = system: barnyardgrass (Echinochloa crus-galli); experiment: Test B flooded paddy test; details: Flood; for Plant response rating, Barnyardgrass: 0 to 100 scale where 0 is no effect and 100 is complete control, 13 to 15 d
Procedure, shortened: as §2

[13] = system: giant foxtail (Setaria faberii); experiment: Test A preemergence
Procedure, shortened: as §1

Kochia (Kochia scoparia) [14] = experiment: Test A preemergence
Procedure, shortened: as §1

[15] = system: pigweed (Amaranthus retroflexus); experiment: Test A preemergence
[16] = system: ryegrass, Italian (Italian ryegrass, Lolium multiflorum); experiment: Test A preemergence
Procedure, shortened: as §1

[17] = system: barnyardgrass (Echinochloa crus-galli); experiment: Test A preemergence
Procedure, shortened: as §1

[18] = system: ragweed (common ragweed, Ambrosia elatior); experiment: Test A preemergence
Procedure, shortened: as §1

[19] = 125 g ai/ha, postemergence, visual rating after approx. 10 d, 0 to 100 scale (0 no effect, 100 complete control)
[20] = 500 g ai/ha, postemergence, visual injury, 0 to 100 scale (0 no effect, 100 complete control), approx. 10 d
[21] = 125 g ai/ha, postemergence, visual injury after approximately 10 d, 0 to 100 scale (0 no effect, 100 complete control)
[22] = 125 g ai/ha, Preemergence, visual injury after approximately 10 d, 0 to 100 scale where 0 is no effect and 100 is complete control
[23] = 500 g ai/ha, preemergence, 0 to 100 scale, 0 = no effect, 100 = complete control
[24] = 125 g ai/ha, preemergence, visual rating after approx. 10 d, 0 to 100 scale where 0 is no effect and 100 is complete control
[25] = 125 g ai/ha, Postemergence, visual injury after approximately 10 d, 0 to 100 scale where 0 is no effect and 100 is complete control
[26] = 250 g ai/ha, scale of 0 to 100 where 0 is no effect and 100 is complete control
[27] = 125 g ai/ha, Preemergence, visual injury rating after approximately 10 d
[28] = 500 g ai/ha, preemergence, visual injury rating about 10 d after treatment, 0 to 100 scale (0 no effect, 100 complete control)

CCC1(C(=O)Nc2cccc(F)c2F)C(=O)N(C)CC1c1cccc(C(F)(F)F)c1 (centres unmarked) [Compound 694]
80: Plant response rating, Foxtail, Giant [3, 20]
70: Plant response rating, Barnyardgrass [8, 20] | Plant response rating, Barnyardgrass [17, 22]
20: Plant response rating, Pigweed [6, 21] | Plant response rating, Ducksalad ([11]; 250 g ai/ha)
90: Plant response rating, Foxtail, Giant [13, 22] | Plant response rating, Foxtail, Giant [13, 23] | Plant response rating, Barnyardgrass [17, 23]
10: Plant response rating, Blackgrass [1, 19] | Plant response rating, Ryegrass, Italian [16, 23]
0: Plant response rating, Galium [2, 21] | Plant response rating, Galium [2, 20] | Plant response rating, Kochia (Kochia (Kochia scoparia) [4]; [21]) | Plant response rating, Kochia (Kochia (Kochia scoparia) [4]; [20]) | Plant response rating, Wheat [5, 21] | Plant response rating, Wheat [5, 20] | Plant response rating, Ryegrass, Italian [7, 21] | Plant response rating, Corn (corn (Zea mays); [21]) | Plant response rating, Corn (corn (Zea mays); [20]) | Plant response rating, Ragweed [9, 21] | Plant response rating, Ragweed [9, 20] | Sedge, Umbrella plant response rating ([10]; scale of 0 to 100 where 0 is no effect and 100 is complete control) | Plant response rating, Rice (rice (Oryra sativa); 250 g ai/ha) | Plant response rating, Barnyardgrass ([12]; 250 g ai/ha) | Plant response rating, Kochia (Kochia (Kochia scoparia) [14]; [22]) | Plant response rating, Kochia (Kochia (Kochia scoparia) [14]; [23]) | Plant response rating, Pigweed [15, 24] | Plant response rating, Pigweed [15, 23] | Plant response rating, Ryegrass, Italian [16, 24] | Plant response rating, Ragweed [18, 24] | Plant response rating, Ragweed [18, 23]
50: Plant response rating, Foxtail, Giant [3, 21] | Plant response rating, Pigweed [6, 20] | Plant response rating, Ryegrass, Italian [7, 20] | Plant response rating, Barnyardgrass [8, 19]
30: Plant response rating, Blackgrass [1, 20]

O=C1NCC(c2ccc(I)cc2)C1C(=O)Nc1ccccc1Cl (racemic) [Compound 704]
30: Plant response rating, Blackgrass [1, 20] | Plant response rating, Barnyardgrass ([12]; 500 g ai/ha) | Plant response rating, Kochia (Kochia (Kochia scoparia) [14]; [23]) | Plant response rating, Pigweed [15, 23]
85: Plant response rating, Ducksalad ([11]; 500 g ai/ha)
90: Plant response rating, Foxtail, Giant [3, 20] | Plant response rating, Barnyardgrass [8, 20] | Plant response rating, Foxtail, Giant [13, 24] | Plant response rating, Foxtail, Giant [13, 23] | Plant response rating, Barnyardgrass [17, 23]
70: Plant response rating, Foxtail, Giant [3, 21] | Plant response rating, Barnyardgrass [8, 21]
40: Plant response rating, Galium [2, 20] | Plant response rating, Barnyardgrass [17, 24]
0: Plant response rating, Blackgrass [1, 21] | Plant response rating, Kochia (Kochia (Kochia scoparia) [4]; [21]) | Plant response rating, Wheat [5, 21] | Plant response rating, Wheat [5, 20] | Plant response rating, Pigweed [6, 21] | Plant response rating, Ryegrass, Italian [7, 21] | Plant response rating, Corn (corn (Zea mays); [21]) | Plant response rating, Corn (corn (Zea mays); [20]) | Plant response rating, Ragweed [9, 21] | Plant response rating, Sedge, Umbrella ([10]; 500 g ai/ha, 0 to 100 scale where 0 is no effect and 100 is complete control, 13 to 15 d) | Plant response rating, Rice (rice (Oryra sativa); 500 g ai/ha) | Plant response rating, Kochia (Kochia (Kochia scoparia) [14]; [24]) | Plant response rating, Pigweed [15, 24] | Plant response rating, Ryegrass, Italian [16, 24] | Plant response rating, Ragweed [18, 24]
20: Plant response rating, Galium [2, 21] | Plant response rating, Kochia (Kochia (Kochia scoparia) [4]; [20]) | Plant response rating, Pigweed [6, 20] | Plant response rating, Ryegrass, Italian [7, 20] | Plant response rating, Ragweed [9, 20] | Plant response rating, Ryegrass, Italian [16, 23] | Plant response rating, Ragweed [18, 23]

Cc1c(F)cccc1NC(=O)[C@H]1C(=O)NC[C@@H]1c1ccc2c(c1)OCO2 (stereo in doubt) [Compound 989]
15: Barnyardgrass plant response rating [12, 26]
40: Ragweed plant response rating [18, 28]
80: Plant response rating, Barnyardgrass [8, 25]
90: Foxtail, Giant plant response rating [13, 28] | Kochia plant response rating (Kochia (Kochia scoparia) [14]; [28]) | Barnyardgrass plant response rating [17, 28]
20: Plant response rating, Galium [2, 25]
0: Plant response rating, Blackgrass [1, 25] | Plant response rating, Kochia (Kochia (Kochia scoparia) [4]; [25]) | Plant response rating, Wheat [5, 25] | Plant response rating, Pigweed [6, 25] | Plant response rating, Ryegrass, Italian [7, 25] | Plant response rating, Corn (corn (Zea mays); [25]) | Plant response rating, Ragweed [9, 25] | Sedge, Umbrella plant response rating ([10]; 0 to 100 scale where 0 is no effect and 100 is complete control) | Rice plant response rating (rice (Oryra sativa); [26]) | Kochia plant response rating (0 to 100 scale, 0 is no effect, 100 is complete control) (Kochia (Kochia scoparia) [14]; [27]) | Pigweed plant response rating (0 to 100 scale, 0 is no effect, 100 is complete control) [15, 27] | Pigweed plant response rating [15, 28] | Ryegrass, Italian plant response rating (0 to 100 scale, 0 is no effect, 100 is complete control) [16, 27] | Ryegrass, Italian plant response rating [16, 28] | Ragweed plant response rating (0 to 100 scale, 0 is no effect, 100 is complete control) [18, 27]
100: Ducksalad plant response rating [11, 26]
50: Plant response rating, Foxtail, Giant [3, 25]
70: Foxtail, Giant plant response rating (0 to 100 scale, 0 is no effect, 100 is complete control) [13, 27] | Barnyardgrass plant response rating (0 to 100 scale, 0 is no effect, 100 is complete control) [17, 27]
